Assay: Biodistribution in colon after single oral dose
Format: in vivo
Details: PO 90.0 mg/kg, male Swiss albino mice
Protocol: The biodistribution of DFL23806 in the proximal and distal colon was evaluated in male Swiss albino mice following single dose oral administration of DFL23806 90 mg/kg.
Colon concentration (ng/g) of DFL23806 after PO (90.0 mg/kg) dose administration to male Swiss albino mice.
Colon/Plasma ratio of DFL23806 after PO (90.0 mg/kg) dose administration to male Swiss albino mice.

Structure (SMILES): Cc1cc(F)cc(C)c1NS(=O)(=O)c1cccc(CCCCCCC(=O)O)c1 [DFL23806, 7-(3-(N-(4-fluoro-2,6-dimethylphenyl)sulfamoyl)phenyl)heptanoic acid]
- Colon/Plasma ratio, Mean (4.00 h, 90 mg/kg): 64.20
- Kp at 1 h (mouse, colon/plasma, 1.00 h, read-out: Colon/Plasma ratio, Mean): 1.63
- Kp at 4 h (mouse, colon/plasma, 4.00 h, read-out: Colon/Plasma ratio, Mean): 64.2
- concentration at 1 h (mouse, colon, 1.00 h): 68.3 ng/g
- concentration at 4 h (mouse, colon, 4.00 h): 3570 ng/g
